Test results reported in the NIST ThermoML archive (doi:10.1021/acs.jced.5b00343).
± gives the expanded uncertainty stated by the source.

Legend:
[1] = refractive index (Na D-line) (dimensionless); conditions: 101 kPa, Liquid, Standard Abbe refractometry
[2] = 101 kPa, Liquid; for speed of sound: Frequency=1.5 MHz, Sing-around technique in a fixed-path interferometer; for mass density: Vibrating tube method

CCCCO [butan-1-ol]
Conditions	mass density, [2] [kg/m3]	refractive index, [1]	speed of sound, [2] [m/s]
303.15 K	802.01 ± 0.15	1.3948 ± 0.0004	1222.7 ± 1.5
308.15 K	798.14 ± 0.15	1.3927 ± 0.0004	1206.3 ± 1.5
313.15 K	794.22 ± 0.15	1.3907 ± 0.0004	1189.4 ± 1.5
318.15 K	790.28 ± 0.15	1.3875 ± 0.0004	1172.8 ± 1.5
323.15 K	786.29 ± 0.16	1.3848 ± 0.0004	1156.7 ± 1.5
